Series [1] in a line: Absorption spectra, emission spectra, molar extinction coefficients and quantum yields of the dye compounds. The class given is physicochemical.
Series [2] in a line: Photophysical properties incl. two-photon cross-sections (femtosecond fluorescence measurement technique). It counts as physicochemical. The settings on record: for eΦ: Molar extinction coefficient × fluorescence quantum yield: in M-1cm-1. The procedure:
All measurements were performed in DMSO, ethanol, and PBS buffer. Two-photon cross-sections (δ) were measured using a femtosecond (fs) fluorescence measurement technique.

The results in this text go back to patent US10473666B2, “Dye compounds” (SFC CO., LTD., priority 2015, dated 2019).

For the compound `C[n+]1c(/C=C/C2=CC3=CC4=C5N(CCC4OC3=CC2=O)c2ccccc2C5(C)C)sc2ccccc21` (stereo not shown) [Formula 104], in series [1] (Table 6, solvent DMSO), the Quantum yield is listed as 0.38, the “ε (molar extinction coefficient)” value is given as 52,000 M^−1cm^−1, the λabs is 646 nm and the λem came to 685 nm. Further, in series [1] (Table 6, solvent PBS), the Quantum yield was 0.09, the “ε (molar extinction coefficient)” value was 28,000 M^−1cm^−1, the λabs was 559 nm and the λem is 572 nm.
As for `CC1=CC(C)(C)N(CCCCCC(=O)O)c2cc3c(cc21)C=C1C2=[N+](CCC1O3)c1ccc3ccccc3c1C2(C)C` (stereo not shown) [Formula 106], in series [1] (Table 6, solvent DMSO), the Quantum yield is 0.72, the “ε (molar extinction coefficient)” value is recorded as 55,000 M^−1cm^−1, the λabs came to 620 nm and the λem was 660 nm. Also, in series [1] (Table 6, solvent EtOH), the Quantum yield is 0.59, the “ε (molar extinction coefficient)” value is given as 70,000 M^−1cm^−1, the λabs is given as 620 nm and the λem was 657 nm. Further, in series [1] (Table 6, solvent PBS), the Quantum yield is 0.21, the “ε (molar extinction coefficient)” value is recorded as 29,000 M^−1cm^−1, the λabs is 616 nm and the λem is on record as 652 nm.
For `C1=C2c3sc4ccccc4[n+]3CCC2Oc2c1cc1c3c2CCCN3CCC1` (stereo not shown) [Formula 101], in series [1] (Table 6, solvent DMSO), the Quantum yield is 0.70, the “ε (molar extinction coefficient)” value was 54,000 M^−1cm^−1, the λabs was 584 nm and the λem is reported as 630 nm. In series [1] (Table 6, solvent EtOH), the Quantum yield is reported as 0.87, the “ε (molar extinction coefficient)” value is 66,000 M^−1cm^−1, the λabs amounted to 585 nm and the λem is 623 nm. Also, in series [1] (Table 6, solvent PBS), the Quantum yield came out at 0.61, the “ε (molar extinction coefficient)” value is listed as 49,000 M^−1cm^−1, the λabs is 578 nm and the λem is given as 619 nm. In series [2] (Buffer (PBS buffer)), the “d: Peak two-photon cross-section” value is 89 10^−50 cm^4s per photon (GM), the dΦ: Two-photon action cross-section amounted to 54 GM, the “Φ: Fluorescence quantum yield” value turned out to be 0.61 and the “λ^(2)max^abs: Maximum wavelength in two-photon absorption spectrum” value (“λ^(2)max^abs: Maximum wavelength” for short) turned out to be 740 nm. For the same compound, in series [2] (Buffer (PBS buffer)), the “λmax^fl: Maximum wavelength in single-photon emission spectrum” value (“λmax^fl: Maximum wavelength” below) turned out to be 619 nm and the “eΦ: Molar extinction coefficient × fluorescence quantum yield” value was determined as 29890. Also, in series [2] (DMSO), the “Φ: Fluorescence quantum yield” value was found to be 0.70 and the “λmax^fl: Maximum wavelength” value was 630 nm. In series [2] (EtOH), the dΦ: Two-photon action cross-section stood at 54 GM and the “λ^(2)max^abs: Maximum wavelength” value is 720 nm.
As for `CC[N+]1=C(/C=C/C=C2/N(CCCCCC(=O)O)c3ccccc3C2(C)C)C(C)(C)c2ccccc21` [Comparative, reference compound], in series [1] (Table 1, solvent not given), the “Q.Y. (quantum yield)” value worked out at 0.04, the “ε (molar extinction coefficient)” value is reported as 150,000 M^−1cm^−1, the λabs amounted to 548 nm and the λem is 562 nm. Also, in series [1] (Table 4, solvent not given), the Quantum yield came out at 0.04, the “ε (molar extinction coefficient)” value is listed as 150,000 M^−1cm^−1, the λabs stood at 548 nm and the λem amounted to 562 nm. Moreover, in series [1] (Table 6, solvent not given), the Quantum yield was found to be 0.04, the “ε (molar extinction coefficient)” value is on record as 150,000 M^−1cm^−1, the λabs came out at 548 nm and the λem was determined as 562 nm.
Take `CC1(C)C2=C3C=C4C=C(C(=O)O)C(=O)C=C4OC3CCN2c2ccc(S(=O)(=O)O)cc21` (stereo not shown) [Formula 53]: in series [1] (Table 4, solvent DMSO), the Quantum yield came to 0.95, the “ε (molar extinction coefficient)” value was 33,000 M^−1cm^−1, the λabs was determined as 546 nm and the λem is 570 nm.
Take `CC1(C)C2=C3C=C4C=C(C=O)C(=O)C=C4OC3CCN2c2ccccc21` (stereo not shown) [Formula 103]: in series [1] (Table 6, solvent DMSO), the Quantum yield came out at 0.88, the “ε (molar extinction coefficient)” value was 108,000 M^−1cm^−1, the λabs turned out to be 566 nm and the λem was 586 nm. For the same compound, in series [1] (Table 6, solvent EtOH), the Quantum yield is listed as 0.84, the “ε (molar extinction coefficient)” value was 70,000 M^−1cm^−1, the λabs was determined as 547 nm and the λem was determined as 574 nm. In addition, in series [1] (Table 6, solvent PBS), the Quantum yield is on record as 0.79, the “ε (molar extinction coefficient)” value was 48,000 M^−1cm^−1, the λabs is reported as 516 nm and the λem amounted to 563 nm.
Take `CC1(C)C2=C3C=C4C=C(c5nc6ccc(C(=O)O)cc6s5)C(=O)C=C4OC3CCN2c2ccccc21` (stereo not shown) [Formula 51]: in series [1] (Table 4, solvent DMSO), the Quantum yield came out at 0.75, the “ε (molar extinction coefficient)” value is given as 78,800 M^−1cm^−1, the λabs came out at 595 nm and the λem is given as 621 nm.
For the compound `CC1=CC(C)(C)N2CCCc3c4c(cc1c32)C=C1C2=[N+](CCC1O4)c1ccccc1C2(C)C` (stereo not shown) [Formula 105], in series [1] (Table 6, solvent DMSO), the Quantum yield turned out to be 0.70, the “ε (molar extinction coefficient)” value was 37,000 M^−1cm^−1, the λabs stood at 613 nm and the λem is recorded as 649 nm. Moreover, in series [1] (Table 6, solvent EtOH), the Quantum yield is listed as 0.50, the “ε (molar extinction coefficient)” value is recorded as 44,000 M^−1cm^−1, the λabs was found to be 611 nm and the λem came to 645 nm. In addition, in series [1] (Table 6, solvent PBS), the Quantum yield turned out to be 0.28, the “ε (molar extinction coefficient)” value is 35,000 M^−1cm^−1, the λabs amounted to 604 nm and the λem was 643 nm.
For the compound `Oc1ccc2c(c1)OC1CC[n+]3c(sc4ccccc43)C1=C2` (stereo not shown) [Formula 102], in series [1] (Table 6, solvent DMSO), the Quantum yield is on record as 0.99, the “ε (molar extinction coefficient)” value is recorded as 23,000 M^−1cm^−1, the λabs was 570 nm and the λem is on record as 586 nm. In series [1] (Table 6, solvent EtOH), the Quantum yield was 0.78, the “ε (molar extinction coefficient)” value is listed as 6,800 M^−1cm^−1, the λabs worked out at 557 nm and the λem turned out to be 578 nm. For the same compound, in series [1] (Table 6, solvent PBS), the Quantum yield was determined as 0.70, the “ε (molar extinction coefficient)” value is reported as 7,100 M^−1cm^−1, the λabs came out at 524 nm and the λem was 571 nm. In series [2] (Buffer (PBS buffer)), the “d: Peak two-photon cross-section” value is recorded as 60 10^−50 cm^4s per photon (GM), the dΦ: Two-photon action cross-section was 42 GM, the “Φ: Fluorescence quantum yield” value stood at 0.70 and the “λ^(2)max^abs: Maximum wavelength” value was 910 nm. Besides, in series [2] (Buffer (PBS buffer)), the “λmax^fl: Maximum wavelength” value was determined as 571 nm and the “eΦ: Molar extinction coefficient × fluorescence quantum yield” value was determined as 4970. In addition, in series [2] (DMSO), the “Φ: Fluorescence quantum yield” value worked out at 1.00 and the “λmax^fl: Maximum wavelength” value was found to be 586 nm. In addition, in series [2] (EtOH), the dΦ: Two-photon action cross-section came to 7.6 GM and the “λ^(2)max^abs: Maximum wavelength” value amounted to 750 nm.
As to `CC1=CC(C)(C)N2CCCc3c4c(cc1c32)C=C1C2=[N+](CCC1O4)c1ccc3ccccc3c1C2(C)C` (stereo not shown) [Formula 107], in series [1] (Table 6, solvent DMSO), the Quantum yield amounted to 0.70, the “ε (molar extinction coefficient)” value is 40,000 M^−1cm^−1, the λabs turned out to be 629 nm and the λem is reported as 664 nm. Also, in series [1] (Table 6, solvent EtOH), the Quantum yield was determined as 0.52, the “ε (molar extinction coefficient)” value is recorded as 50,000 M^−1cm^−1, the λabs worked out at 628 nm and the λem was 659 nm. Further, in series [1] (Table 6, solvent PBS), the Quantum yield turned out to be 0.29, the “ε (molar extinction coefficient)” value is 37,000 M^−1cm^−1, the λabs is listed as 624 nm and the λem worked out at 655 nm.
Turning to `COc1ccc2c(c1)OC1CC[N+]3=C(C1=C2)C(C)(C)c1ccccc13` (stereo not shown) [Formula 99], in series [1] (Table 6, solvent DMSO), the Quantum yield is 0.65, the “ε (molar extinction coefficient)” value is 21,000 M^−1cm^−1, the λabs came to 467 nm and the λem is 563 nm. Also, in series [1] (Table 6, solvent EtOH), the Quantum yield was 0.52, the “ε (molar extinction coefficient)” value was 22,000 M^−1cm^−1, the λabs turned out to be 474 nm and the λem was 558 nm. Also, in series [1] (Table 6, solvent PBS), the Quantum yield is recorded as 0.42, the “ε (molar extinction coefficient)” value is listed as 30,000 M^−1cm^−1, the λabs is 463 nm and the λem was found to be 558 nm.
On to `CC1(C)C2=C3C=C4C=CC(=O)C=C4OC3CCN2c2ccc(CC(=O)O)cc21` (stereo not shown) [Formula 52], for which, in series [1] (Table 4, solvent PBS), the Quantum yield was 0.61, the λabs was determined as 541 nm and the λem is listed as 564 nm.
As to `CC1(C)C2=[N+](CCC3Oc4c(cc5c6c4CCCN6CCC5)C=C23)c2ccccc21` (stereo not shown) [Formula 100], in series [1] (Table 6, solvent DMSO), the Quantum yield is 0.90, the “ε (molar extinction coefficient)” value is on record as 65,000 M^−1cm^−1, the λabs is 594 nm and the λem is recorded as 618 nm. Besides, in series [1] (Table 6, solvent EtOH), the Quantum yield is 0.90, the “ε (molar extinction coefficient)” value is 75,000 M^−1cm^−1, the λabs came out at 592 nm and the λem was found to be 612 nm. Besides, in series [1] (Table 6, solvent PBS), the Quantum yield is 0.80, the “ε (molar extinction coefficient)” value was 54,000 M^−1cm^−1, the λabs worked out at 589 nm and the λem stood at 608 nm. In addition, in series [2] (Buffer (PBS buffer)), the “d: Peak two-photon cross-section” value is given as 272 10^−50 cm^4s per photon (GM), the dΦ: Two-photon action cross-section was 177 GM, the “Φ: Fluorescence quantum yield” value came out at 0.65 and the “λ^(2)max^abs: Maximum wavelength” value stood at 740 nm. Moreover, in series [2] (Buffer (PBS buffer)), the “λmax^fl: Maximum wavelength” value worked out at 611 nm and the “eΦ: Molar extinction coefficient × fluorescence quantum yield” value is given as 61750. In series [2] (DMSO), the “Φ: Fluorescence quantum yield” value turned out to be 0.90 and the “λmax^fl: Maximum wavelength” value is given as 618 nm. Also, in series [2] (EtOH), the dΦ: Two-photon action cross-section was 114 GM and the “λ^(2)max^abs: Maximum wavelength” value came to 750 nm.
